# Measurements reported in patent US10344026B2, “Compositions and methods of targeting mutant K-ras” (NANTBIO, INC., priority 2017, dated 2019).
# Columns and labels:
# Format in all cases: cell-based
# [1] = tested on: U87-MG (K-Ras wild type cell line); test: Viability assay (CellTiterBlue, 72 hr) U87-MG; details: Homo sapiens, U-87 MG, GI50, CellTiterBlue, U87-MG K-Ras wild-type
# Procedure, shortened: (§1)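 Each line was plated at 1000 cells per well and incubated for 72 hr with compound after an 18 hr settling period. CellTiterBlue fluorescence measured the result, and GI50 was fitted relative to DMSO and tamoxifen controls.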
# [2] = tested on: phospho-Akt in Panc10.05 (G12D); test: In-Cell Western phospho-Akt, Panc10.05; details: Homo sapiens, Panc1005, 1 h; Panc10.05, one hour treatment; read-out: In-Cell Western Panc10.05 (G12D) Akt (P)
# Procedure, shortened: (§2)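 Following an 18 hr settle at 37° C, seeded cells receive test compound for 1 hr before fixation and staining with phospho-Akt and phospho-ERK primary antibodies (overnight, 4° C) plus a goat anti-rabbit secondary. Plates are imaged and fluorescence quantitated to give EC50.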
# wild type K-Ras = molecular target: T1, wild type K-Ras (Homo sapiens, UniProt P01116); test: G-LISA Ras activation, 293H cells transfected with Ras wild-type, EGF stimulated; details: compound 1 hour, then 100 ng/ml EGF 2 minutes
# T1 construct: expressed in transfected cells; host or cells: 293H cells
# Procedure, shortened: (§3)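 293H cells were transfected with wild-type or mutant Ras plasmid (Lipofectamine 3000), then exposed next day to compounds at 3.125-25 μM for 1 hour. Wild-type transfectants received 100 ng/ml EGF for 2 minutes before ice-cold PBS wash, lysis on ice and G-LISA readout of active Ras.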
# HCT116-G31D = test: Viability assay (CellTiterBlue, 72 hr) HCT116; details: Homo sapiens, HCT-116, GI50, CellTiterBlue, HCT116 K-Ras G13D, read-out: 72 hr Cell Viability HCT116 (G13D)
# Procedure, shortened: as §1
# [3] = tested on: phospho-ERK in Panc1 (G12D); test: In-Cell Western phospho-ERK, Panc1; details: Homo sapiens, PANC-1, 1 h; Panc1, one hour treatment; read-out: In-Cell Western Panc1 (G12D) Erk (P)
# Procedure, shortened: as §2
# [4] = tested on: phospho-ERK in Panc10.05 (G12D); test: In-Cell Western phospho-ERK, Panc10.05; details: Homo sapiens, Panc1005, 1 h; Panc10.05, one hour treatment; read-out: In-Cell Western Panc10.05 (G12D) Erk (P)
# Procedure, shortened: as §2
# Panc1-G12D = test: Viability assay (CellTiterBlue, 72 hr) Panc1; details: Homo sapiens, PANC-1, GI50, CellTiterBlue, Panc1 K-Ras G12D, read-out: 72 hr Cell Viability Panc1 (G12D)
# Procedure, shortened: as §1
# [5] = tested on: Ishikawa (K-Ras wild type cell line); test: Viability assay (CellTiterBlue, 72 hr) Ishikawa; details: Homo sapiens, GI50, CellTiterBlue, Ishikawa K-Ras wild-type
# Procedure, shortened: as §1
# K-Ras G12V = molecular target: T2, K-Ras G12V (Homo sapiens, UniProt P01116, G12V); test: G-LISA Ras activation, 293H cells transfected with G12V mutant; details: compound 1 hour
# T2 construct: expressed in transfected cells; host or cells: 293H cells
# Method: 293H cells were seeded in 6-wells at 0.6×10^6 cells per well and transfected next day with 5 μg of Ras wild-type, or G12C, G12D or G12V mutant DNA plasmid vector using transfection reagent Lipofectamine 3000. Next day cells were treated with 3.125-25 μM of Ras compounds for 1 hour. Wild-type transfected cells were subsequently treated with 100 ng/ml EGF for 2 minutes. Cells were washed once in ice-cold PBS, lysed in complete lysis buffer on ice, and processed by G-LISA according to Cytoskeleton protocol.
# K-Ras G12D = molecular target: T3, K-Ras G12D (Homo sapiens, UniProt P01116, G12D); test: G-LISA Ras activation, 293H cells transfected with G12D mutant; details: compound 1 hour
# T3 construct: expressed in transfected cells; host or cells: 293H cells
# Procedure, shortened: as §3
# Panc10.05-G12D = test: Viability assay (CellTiterBlue, 72 hr) Panc10.05; details: Homo sapiens, Panc1005, GI50, CellTiterBlue, Panc10.05 K-Ras G12D, read-out: 72 hr Cell Viability Panc10.05 (G12D)
# Procedure, shortened: as §1
# [6] = tested on: phospho-Akt in Panc1 (G12D); test: In-Cell Western phospho-Akt, Panc1; details: Homo sapiens, PANC-1, 1 h; Panc1, one hour treatment; read-out: In-Cell Western Panc1 (G12D) Akt (P)
# Procedure, shortened: as §2
# [7] = tested on: A375 (K-Ras wild type cell line); test: Viability assay (CellTiterBlue, 72 hr) A375; details: Homo sapiens, A-375, GI50, CellTiterBlue
# Procedure, shortened: as §1
# [8] = tested on: phospho-Akt in A375 (Wild-type); test: In-Cell Western phospho-Akt, A375; details: Homo sapiens, A-375, 1 h; A375, one hour treatment; read-out: In-Cell Western A375 (Wild-type) Akt (P)
# Procedure, shortened: as §2
# [9] = tested on: phospho-Akt in HCC827 (Wild-type); test: In-Cell Western phospho-Akt, HCC827; details: Homo sapiens, 1 h; HCC827, one hour treatment; read-out: In-Cell Western HCC827 (Wild-type) Akt (P)
# Procedure, shortened: as §2
# [10] = tested on: phospho-ERK in HCC827 (Wild-type); test: In-Cell Western phospho-ERK, HCC827; details: Homo sapiens, 1 h; HCC827, one hour treatment; read-out: In-Cell Western HCC827 (Wild-type) Erk (P)
# Procedure, shortened: as §2
# [11] = tested on: phospho-ERK in A375 (Wild-type); test: In-Cell Western phospho-ERK, A375; details: Homo sapiens, A-375, 1 h; A375, one hour treatment; read-out: In-Cell Western A375 (Wild-type) Erk (P)
# Procedure, shortened: as §2
# [12] = tested on: HCC827 (K-Ras wild type cell line); test: Viability assay (CellTiterBlue, 72 hr) HCC827; details: Homo sapiens, GI50, CellTiterBlue, HCC827 K-Ras wild-type
# Procedure, shortened: as §1
# T3 sequence (P01116 whole entry G12D): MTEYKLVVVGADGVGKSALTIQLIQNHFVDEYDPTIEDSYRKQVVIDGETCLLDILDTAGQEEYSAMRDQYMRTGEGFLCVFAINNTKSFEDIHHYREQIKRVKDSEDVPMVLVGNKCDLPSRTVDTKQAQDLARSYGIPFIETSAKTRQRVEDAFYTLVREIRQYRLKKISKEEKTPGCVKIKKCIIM
# T1 sequence (P01116 whole entry): as the sequence (P01116 whole entry G12D) above, with D12G counted along it
# T2 sequence (P01116 whole entry G12V): as the sequence (P01116 whole entry G12D) above, with D12V counted along it
Compound,IC50 [1] [µM],EC50 [2] [µM],IC50 (wild type K-Ras) [µM],IC50 (HCT116-G31D) [µM],EC50 [3] [µM],EC50 [4] [µM],IC50 (Panc1-G12D) [µM],IC50 [5] [µM],IC50 (K-Ras G12V) [µM],IC50 (K-Ras G12D) [µM],IC50 (Panc10.05-G12D) [µM],EC50 [6] [µM],IC50 [7] [µM],EC50 [8] [µM],EC50 [9] [µM],EC50 [10] [µM],EC50 [11] [µM],IC50 [12] [µM]
"Cc1nc(C2CC2)oc1C(=O)Nc1nc(-c2ccc3c(c2)CCC(=O)N3)cs1 [Compound 6, 2-cyclopropyl-4-methyl-N-(4-(2-oxo-1,2,3,4-tetrahydroquinolin-6-yl)thiazol-2-yl)oxazole-5-carboxamide]",5,3,10.6,> 25,4,2,2.4,10,19.4,7.3,3.6,,,,,,,
"Cc1nc(C2CC2)oc1C(=O)Nc1nc(-c2ccc3c(c2)CCC(=O)N3Cc2ccccc2)cs1 [Compound 58, N-(4-(1-benzyl-2-oxo-1,2,3,4-tetrahydroquinolin-6-yl)thiazol-2-yl)-2-cyclopropyl-4-methyloxazole-5-carboxamide]",4,3,20.4,4,,,1.7,2.3,21.6,5.2,3.4,6,,,,,,
"CCc1nc(C)c(C(=O)Nc2nc(-c3ccc4c(c3)CCC(=O)N4CCOC)cs2)o1 [Compound 110, 2-ethyl-N-(4-(1-(2-methoxyethyl)-2-oxo-1,2,3,4-tetrahydroquinolin-6-yl)thiazol-2-yl)-4-methyloxazole-5-carboxamide]",17,3,6.8,> 25,3,1.3,4,10,,3.9,0.778,23,> 25,> 25,> 25,4,23,4
"COCCN1C(=O)CCc2cc(-c3csc(NC(=O)c4oc(C(C)C)nc4C)n3)ccc21 [Compound 111, 2-isopropyl-NA-(4-(1-(2-methoxyethyl)-2-oxo-1,2,3,4-tetrahydroquinolin-6-yl)thiazol-2-yl)-4-methyloxazole-5-carboxamide]",7,2,3.9,24,1.4,0.767,2,4,,2.5,0.852,16,7,> 25,> 25,1.6,12,2
